Test results from the supplement of paper PMC8253809.

How the values were obtained:
[1] = system: DIPGX37 (H3.3 K27M diffuse intrinsic pontine glioma line); assay: area under dose-response curve of % growth inhibition (log2 RLU vs DMSO / staurosporine), 1e-11 to 1e-4 M (% x log10 M); higher = more growth inhibition
How it was run: (§1)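 Patient-derived pHGG/DIPG cell lines and astrocytes were plated in 384-well plates coated with 1% Geltrex and treated in triplicate with a 10-point threefold dilution series whose mean top concentration was 35 μM, for 7 days (3 days for iAstro) at 37 °C and 5% CO2. CellTiter-Glo luminescence was log2-transformed and scaled on each plate to % activity between solvent and positive controls. Area under the curve came from the trapezoid rule applied to a fitted log-logistic curve, or to a smoothing spline where the sigmoid fit failed.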

[2] = system: DIPGX29 (H3.3 K27M diffuse intrinsic pontine glioma line); assay: as above
How it was run: as §1

[3] = system: HGGX6 (H3.3 G34R paediatric high-grade glioma line); assay: as above
How it was run: as §1

[4] = system: HGGX39 (paediatric high-grade glioma line); assay: as above
How it was run: as §1

[5] = system: DIPGX37; assay: maximal growth inhibition (yFin) relative to DMSO / staurosporine; higher = more efficacious
How it was run: (§2)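 Treatment used a pin tool and a 10-point threefold dilution series, mean top concentration 35 μM, run in triplicate on patient-derived pHGG/DIPG cell lines and astrocyte controls in 1% Geltrex-coated 384-well plates. Plates were kept at 37 °C, 5% CO2 for 7 days (iAstro: 3 days). Log2-transformed CellTiter-Glo luminescence was scaled per plate to % activity between negative (solvent) and positive control wells and pooled before fitting. EC50 and maximal response (yFin) came from the three- or four-parameter log-logistic fit chosen by lowest AICc.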

[6] = system: HGGX39; assay: as above
How it was run: as §2

[7] = system: DIPGX37; assay: EC50 (inflection of fitted growth-inhibition curve) (log10 M)
How it was run: as §2

[8] = system: HGGX39; assay: as above
How it was run: as §2

Structure (SMILES) | area under dose-response curve [1] | area under dose-response curve [2] | area under dose-response curve [3] | area under dose-response curve [4] | maximal growth inhibition [5] [%] | maximal growth inhibition [6] [%] | EC50 (log10 M) [7] | EC50 (log10 M) [8]
CC(=O)OC12COC1CC(O)C1(C)C(=O)C(O)C3=C(C)C(O)CC(O)(C(OC(=O)c4ccccc4)C21)C3(C)C (centres undefined) [10-DEACETYLBACCATIN-III] | 28.9 | 13.6 | 14.9 | 47.3 | 31.4 | 39.6 | -4.92 | -5.19
Clc1cc2c(NC3CCCC3)nnc(-c3ccncc3)c2cc1Cl [A-196] | 18.8 | 2.12 | 3.18 | 2.32 | 23.4 | – | -4.53 | –
C[C@@H]1CC[C@H]2[C@@H](C)C(=O)O[C@@H]3O[C@@]4(C)CC[C@@H]1[C@]32OO4 [ARTEMISININ] | 42.5 | 19.7 | 20.9 | 36.8 | 32.7 | 29.7 | -5.3 | -5.38
Cc1c(N)nc([C@H](CC(N)=O)NC[C@H](N)C(N)=O)nc1C(=O)N[C@H](C(=O)N[C@H](C)[C@@H](O)[C@H](C)C(=O)N[C@H](C(=O)NCCc1nc(-c2nc(C(=O)NCCC[S+](C)C)cs2)cs1)[C@@H](C)O)[C@@H](OC1OC(CO)C(O)C(O)C1OC1OC(CO)C(O)C(OC(N)=O)C1O)c1cnc[nH]1 (some centres undefined) [BLEOMYCIN] | 40.4 | 22.6 | 6.9 | 19.5 | 24.8 | – | -5.22 | –
C/C=C(\C)C(=O)N[C@@H](c1ccccc1)[C@@H](O)C(=O)O[C@H]1C[C@@]2(O)[C@@H](OC(=O)c3ccccc3)[C@@H]3[C@]4(OC(C)=O)CO[C@@H]4C[C@H](O)[C@@]3(C)C(=O)[C@H](OC(C)=O)C(=C1C)C2(C)C [CEPHALOMANNINE] | 101 | 46.7 | 54.1 | 180 | 28.2 | 48.4 | -7.58 | -7.73
Cc1sc2c(c1C)C(c1ccc(Cl)cc1)=N[C@@H](CC(N)=O)c1nnc(C)n1-2 [CPI-203] | 62.1 | 26.8 | 35.8 | 47.1 | 22.3 | – | -6.88 | –
CCc1c2c(nc3ccc(OC(=O)N4CCC(N5CCCCC5)CC4)cc13)-c1cc3c(c(=O)n1C2)COC(=O)[C@]3(O)CC [IRINOTECAN] | 56.4 | 52.4 | 25.9 | 107 | 20.5 | 53.2 | -7.09 | -5.98
CCC(C)n1ncn(-c2ccc(N3CCN(c4ccc(OCC5COC(Cn6cncn6)(c6ccc(Cl)cc6Cl)O5)cc4)CC3)cc2)c1=O (centres undefined) [ITRACONAZOLE] | 56.7 | 20 | 29.7 | 28.4 | 62.3 | – | -4.91 | –
O=C1c2c(O)ccc(O)c2C(=O)c2c(NCCNCCO)ccc(NCCNCCO)c21 [MITOXANTHRONE] | 104 | 116 | 112 | 116 | 81.9 | – | -4.79 | –
COc1ccc(C2CC(c3ccccc3)=NN2c2ccc(S(N)(=O)=O)cc2)cc1 (centres undefined) [ML141] | 33.4 | 26.6 | 33.7 | 20 | – | 38.3 | – | -4.54
COc1cc(C#N)ccc1S(=O)(=O)Nc1ccc2c(c1)cc(C)c(=O)n2C [NI-57] | 7.6 | 13.6 | 15.9 | 22.9 | – | – | – | –
CC1CS(=O)(=O)CCN1/N=C/c1ccc([N+](=O)[O-])o1 (centres undefined) [NIFURTIMOX] | 17.9 | 18.2 | 22 | 23.6 | – | – | – | –
Cc1cn(-c2cc(NC(=O)c3ccc(C)c(Nc4nccc(-c5cccnc5)n4)c3)cc(C(F)(F)F)c2)cn1 [NILOTINIB] | 18.9 | 14.3 | 16.8 | 14.9 | – | – | – | –
Cc1ncc(CNC(=O)N(CCCl)N=O)c(N)n1 [NIMUSTINE] | 0 | 1.11 | 1.35 | 1.19 | – | – | – | –
COc1ccc2c(c1OC)C(=O)O[C@@H]2[C@H]1c2c(cc3c(c2OC)OCO3)CCN1C [NOSCAPINE] | 4.1 | 3.97 | 3.61 | 3.21 | – | – | – | –
CN1CCN(c2ccc(-c3cccc(CN4CCOCC4)c3)cc2NC(=O)c2c[nH]c(=O)cc2C(F)(F)F)CC1 [OICR-9429] | 4.44 | 6.88 | 15.6 | 6.53 | – | – | – | –
Cc1ccc(Nc2nccc(N(C)c3ccc4c(C)n(C)nc4c3)n2)cc1S(N)(=O)=O [PAZOPANIB] | 12.6 | 14.4 | 16.8 | 14.8 | – | – | – | –
Nc1nc2[nH]cc(CCc3ccc(C(=O)N[C@@H](CCC(=O)O)C(=O)O)cc3)c2c(=O)[nH]1 [PEMETREXED] | 9.28 | 34.6 | 12.7 | 23.2 | – | – | – | –
OC[C@H]1O[C@@H](n2cnc3c2N=CNC[C@H]3O)C[C@@H]1O [PENTOSTATIN] | 10.9 | 3.92 | 5.39 | 10 | – | – | – | –
COc1ccccc1S(=O)(=O)Nc1ccc2c(c1)CN(C)C(=O)N2 [PFI-1] | 27.8 | 23.7 | 17.1 | 20.6 | – | – | – | –
O=C(/C=C/N1C[C@H]2C[C@@H]1CN2c1ccccn1)c1ccccc1O [PFI-3] | 20.6 | 9.58 | 11.5 | 10.6 | – | – | – | –
COc1ccccc1C(=O)Nc1cc2c(cc1N1CCCC1)n(C)c(=O)n2C [PFI-4] | 6.98 | 21.9 | 18.2 | 20.5 | – | – | – | –
CC(C)N(C[C@H]1O[C@@H](n2cnc3c(N)ncnc32)[C@H](O)[C@@H]1O)[C@H]1C[C@@H](CCc2nc3cc(C(C)(C)C)ccc3[nH]2)C1 [PINOMETOSTAT] | 14.5 | 6.21 | 4.37 | 0.36 | – | – | – | –
CCc1ccc(CCOc2ccc(CC3SC(=O)NC3=O)cc2)nc1 (centres undefined) [PIOGLITAZONE] | 35.1 | 10.8 | 11.5 | 11.2 | – | – | – | –
c1cc(CN2CCCNCCNCCCNCC2)ccc1CN1CCCNCCNCCCNCC1 [PLERIXAFOR] | 32.1 | 16.6 | 3.55 | 21 | – | – | – | –
CCN(CC)CCOC(=O)c1ccc(N)cc1 [PROCAINE] | 1.95 | 3.12 | 0 | 1.44 | – | – | – | –

Structure (SMILES) | area under dose-response curve [1] | area under dose-response curve [2] | area under dose-response curve [3] | area under dose-response curve [4] | maximal growth inhibition [5] [%] | maximal growth inhibition [6] [%] | EC50 (log10 M) [7] | EC50 (log10 M) [8]
CCc1nc(N)nc(N)c1-c1ccc(Cl)cc1 [PYRIMETHAMINE] | 6.34 | 25 | 26.9 | 26.5 | – | – | – | –
Cc1nc(=O)c2cc(CN(C)c3ccc(C(=O)N[C@@H](CCC(=O)O)C(=O)O)s3)ccc2[nH]1 [RALTITREXED] | 26.9 | 26.5 | 16 | 33.4 | – | – | – | –
Nc1cc(F)ccc1NC(=O)/C=C/c1cnn(C/C=C/c2ccccc2)c1 [RGFP966] | 66.1 | 17.1 | 12.3 | 13.5 | 68.6 | – | -4.62 | –
CN(C)C(=O)c1cc2cnc(Nc3ccc(N4CCNCC4)cn3)nc2n1C1CCCC1 [RIBOCICLIB] | 27.7 | 13.1 | 17.1 | 32.5 | – | 21.8 | – | -5.39
COc1cc(OC)c2c(=O)[nH]c(-c3cc(C)c(OCCO)c(C)c3)nc2c1 [RVX-208] | 2.33 | 5.91 | 12 | 8.2 | – | – | – | –
O=C(NCC(=O)N1CCCC1)Nc1ccc2cnccc2c1 [SGC-707] | 11.8 | 20.9 | 11.3 | 31.4 | – | 58.4 | – | -4.55
COc1ccc(CCc2nc3cc(-c4c(C)noc4C)ccc3n2C[C@H](C)N2CCOCC2)cc1Cl [SGC-CBP30] | 13.9 | 7.64 | 11.7 | 14 | – | – | – | –
CO[C@H]1C[C@@H]2CC[C@@H](C)[C@@](O)(O2)C(=O)C(=O)N2CCCC[C@H]2C(=O)O[C@H]([C@H](C)C[C@@H]2CC[C@@H](O)[C@H](OC)C2)CC(=O)[C@H](C)/C=C(\C)[C@@H](O)[C@@H](OC)C(=O)[C@H](C)C[C@H](C)/C=C/C=C/C=C/1C [SIROLIMUS] | 59.1 | 47.3 | 62.6 | 58.5 | 67.7 | – | -4.68 | –
CC1=C(CC(=O)O)c2cc(F)ccc2/C1=C\c1ccc([S+](C)[O-])cc1 (centres undefined) [SULINDAC] | 16.9 | 3.44 | 6.88 | 4.57 | – | – | – | –
CC1(C)CCC(C)(C)c2cc(NC(=O)c3ccc(C(=O)O)cc3)ccc21 [TAMIBAROTENE] | 37.3 | 19.3 | 28.3 | 44.5 | – | – | – | –
CC/C(=C(\c1ccccc1)c1ccc(OCCN(C)C)cc1)c1ccccc1 [TAMOXIFEN] | 50.8 | 8.96 | 12.2 | 8.92 | 64.9 | – | -4.61 | –
COc1cccc2c1c(O)c(C(=O)N(C)c1ccc(C(F)(F)F)cc1)c(=O)n2C [TASQUINIMOD] | 4.17 | 0 | 0 | 0 | – | – | – | –
Cn1nnc2c(C(N)=O)ncn2c1=O [TEMOZOLOMIDE] | 15.4 | 5.13 | 15.3 | 11.3 | – | – | – | –
CS(=O)(=O)c1ccc([C@@H](O)[C@@H](CO)NC(=O)C(Cl)Cl)cc1 [THIAMPHENICOL] | 29.7 | 15.4 | 19.8 | 52 | – | 26 | – | -6
COc1cc2nccc(Oc3ccc(NC(=O)Nc4cc(C)on4)c(Cl)c3)c2cc1OC [TIVOZANIB] | 31.3 | 14.6 | 42.5 | 21.7 | – | – | – | –
O=c1[nH]c(=O)n([C@H]2C[C@H](O)[C@@H](CO)O2)cc1C(F)(F)F [TRIFLURIDINE] | 22.2 | 7.68 | 3.99 | 21 | – | – | – | –
COc1cc(NCc2ccc3nc(N)nc(N)c3c2C)cc(OC)c1OC [TRIMETREXATE] | 11.6 | 51 | 31.9 | 28.7 | – | – | – | –
CN1[C@@H]2CC[C@H]1C[C@@H](OC(=O)c1c[nH]c3ccccc13)C2 [TROPISETRON] | 33.4 | 18.7 | 10.2 | 19.5 | – | – | – | –
O=C(c1cncc(Br)c1)N1CCC(N2CCCC2)CC1 [UNC669] | 20.1 | 0 | 0 | 0.456 | – | – | – | –
O=C(c1cccc(Br)c1)N1CCC(N2CCCC2)CC1 [UNC926] | 0 | 8.49 | 8.91 | 8.09 | – | – | – | –
O=C(c1ccc(C(=O)N2CCC(N3CCCC3)CC2)c(Nc2ccccc2)c1)N1CCC(N2CCCC2)CC1 [UNC1215] | 15 | 4.19 | 6.97 | 5.82 | – | – | – | –
O=C(NCC(=O)N1CCCCC1)Nc1ccc2nnsc2c1 [UNC2327] | 3.13 | 8.94 | 10.6 | 5.31 | – | – | – | –
CCCS(=O)(=O)Nc1ccc(F)c(C(=O)c2c[nH]c3ncc(-c4ccc(Cl)cc4)cc23)c1F [VEMURAFENIB] | 2.53 | 5.27 | 8.94 | 7.32 | – | – | – | –
Cc1c(F)ccc(C(=O)Nc2cc([N+](=O)[O-])ccc2N2CCN(C)CC2)c1Cl [WDR5-C47] | 27.1 | 4.98 | 7.74 | 5.16 | – | – | – | –
Nc1ccn([C@H]2CC[C@@H](CO)O2)c(=O)n1 [ZALCITABINE] | 14.2 | 13.5 | 2.54 | 14.5 | – | – | – | –
